We go through 17 compounds from patent publication US11648254B2 (Kumquat Biosciences Inc., priority 2021, dated 2023).

Read-outs that look alike come from different tables or passages of the source.

Assay [1] relates to MIA PaCa-2 cells (K-Ras G12C). Put plainly: Ras-SOS cellular growth inhibition assay (CellTiter-Glo, 3D). It counts as cell-based. As to conditions: Homo sapiens. The gist of the method: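 Growth read by CellTiter-Glo luminescence about 5 days after dosing with 3-fold dilutions (9 points), added one day post-seeding. Cells: MIA PaCa-2, 3D culture on ultra-low-attachment surface, medium DMEM/Ham's F12 plus 10% FCS and 2.5% horse serum; IC50 by four-parameter fit.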
On the technique in general: Cellular ATP, detected with luciferase, serves as a proxy for viable cell number.

Assay [2] deals with NCI-H1975 cells (EGFR T790M L858R). In words: EGFR-SOS cellular inhibition assay (CellTiter-Glo, 3D). As to conditions: Homo sapiens. It counts as cell-based.
The next assay deals with SOS1 (Homo sapiens (Human), UniProt Q07889). Put plainly: Ras-SOS interaction assay (HTRF). The assay is classed as biochemical. Background: TR-FRET usually uses a lanthanide donor and a delayed reading to cut background.
Setting [3] is: MIA PaCa-2, 120 h, MIA PaCa-2, 3D proliferation, about 5 days, read-out: Bio-Cell-Prolif-3D (MiaPaca2 IC50).
The mark [4] stands for this setting: 120 h, NCI-H1975, 3D proliferation, about 5 days, read-out: Bio-Cell-Prolif-3D (H1975 IC50).
Where [5] appears, read: NCI-H1975, EGFR T790M L858R, read-out: IC50 in inhibiting growth of NCI-H1975 cell line.
Where [6] appears, read: K-RasG13D utilized, read-out: IC50 inhibition of SOS.
Where [7] appears, read: K-RasG13D, read-out: IC50 value against SOS1.
Where [8] appears, read: MIA PaCa-2, MIA PaCa-2, read-out: IC50 in inhibiting MIA PaCa-2 cell growth.

SOS1, sequence (Q07889 564-1049): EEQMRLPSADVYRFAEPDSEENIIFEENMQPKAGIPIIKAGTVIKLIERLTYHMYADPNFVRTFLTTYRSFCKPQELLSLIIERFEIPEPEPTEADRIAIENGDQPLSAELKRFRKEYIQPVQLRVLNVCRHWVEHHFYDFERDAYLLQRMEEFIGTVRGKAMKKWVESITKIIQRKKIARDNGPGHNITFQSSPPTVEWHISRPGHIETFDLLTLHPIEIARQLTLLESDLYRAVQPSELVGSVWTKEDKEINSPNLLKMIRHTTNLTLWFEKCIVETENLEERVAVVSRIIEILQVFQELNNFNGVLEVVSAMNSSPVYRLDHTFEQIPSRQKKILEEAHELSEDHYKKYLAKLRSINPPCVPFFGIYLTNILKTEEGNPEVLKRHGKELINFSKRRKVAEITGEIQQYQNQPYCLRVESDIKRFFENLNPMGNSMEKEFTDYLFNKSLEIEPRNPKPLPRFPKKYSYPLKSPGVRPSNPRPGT

Turning to `COc1nc2nc(C)nc(N[C@H](C)c3cccc(C(F)(F)C(C)(C)O)c3F)c2cc1N1CCN(C)CC1` [Compound 323, (R)-1,1-difluoro-1-(2-fluoro-3-(1-((7-methoxy-2-methyl-6-(4-methylpiperazin-1-yl)pyrido[2,3-d]pyrimidin-4-yl)amino)ethyl)phenyl)-2-methylpropan-2-ol], the half-inhibitory concentration (IC50) (in general, the point on the concentration scale where inhibition reaches its midpoint) is at most 1000 nM in assay [1] (setting [3]); at most 1000 nM in assay [2] (setting [4]); under 500 nM in assay [2] (setting [5]); under 100 nM at SOS1 (setting [6]); under 50 nM at SOS1 (setting [7]).
As for `COc1nc2nc(OC[C@@H]3CCCN3C)nc(N[C@H](C)c3cccc(C(F)F)c3F)c2cc1C1(C#N)CC1` [Compound 326, 1-(4-(((R)-1-(3-(difluoromethyl)-2-fluorophenyl)ethyl)amino)-7-methoxy-2-(((S)-1-methylpyrrolidin-2-yl)methoxy)pyrido[2,3-d]pyrimidin-6-yl)cyclopropane-1-carbonitrile], the IC50 in assay [1] (setting [3]) is at most 1000 nM; in assay [2] (setting [4]), at most 1000 nM; in assay [2] (setting [5]), under 500 nM; at SOS1 (setting [6]), under 100 nM; on SOS1 (setting [7]), under 50 nM.
Turning to `Cc1nc(N[C@H](C)c2cccc(C(F)(F)CO)c2F)c2cc(C3(C#N)CC3)c(N3CCN(C(C)C)CC3)nc2n1` [Compound 347, (R)-1-(4-((1-(3-(1,1-difluoro-2-hydroxyethyl)-2-fluorophenyl)ethyl)amino)-7-(4-isopropylpiperazin-1-yl)-2-methylpyrido[2,3-d]pyrimidin-6-yl)cyclopropane-1-carbonitrile], the IC50 is at most 1000 nM in assay [1] (setting [3]); under 500 nM in assay [1] (setting [8]); at most 1000 nM in assay [2] (setting [4]); under 500 nM in assay [2] (setting [5]); under 100 nM on SOS1 (setting [6]); under 50 nM at SOS1 (setting [7]).
As to `COc1nc2nc(OCC3CN(C)C3)nc(N[C@H](C)c3cccc(C(F)F)c3F)c2cc1C1(C#N)CC1` [Compound 203, (R)-1-(4-((1-(3-(difluoromethyl)-2-fluorophenyl)ethyl)amino)-7-methoxy-2-((1-methylazetidin-3-yl)methoxy)pyrido[2,3-d]pyrimidin-6-yl)cyclopropane-1-carbonitrile], the IC50 in assay [1] (setting [3]) was 1000 to 10000 nM; in assay [2] (setting [4]) it was at most 1000 nM; on SOS1 (setting [6]), under 100 nM; at SOS1 (setting [7]), under 50 nM.
Take `COc1nc2ncnc(N[C@H](C)c3cccc(C(F)(F)C4CCN(C(C)C)CC4)c3)c2cc1C1CCN(C(C)C)CC1` [Compound 419, (R)—N-(1-(3-(difluoro(1-isopropylpiperidin-4-yl)methyl)phenyl)ethyl)-6-(1-isopropylpiperidin-4-yl)-7-methoxypyrido[2,3-d]pyrimidin-4-amine]: the half-inhibitory concentration (IC50) was at most 1000 nM in assay [1] (setting [3]); under 500 nM in assay [1] (setting [8]); at most 1000 nM in assay [2] (setting [4]); under 500 nM in assay [2] (setting [5]); under 100 nM on SOS1 (setting [6]); under 50 nM on SOS1 (setting [7]).
`Cc1nc(N[C@H](C)c2cccc(C(F)F)c2F)c2cc(C3CCN(C)CC3)c(OCCN(C)C)nc2n1` [Compound 334, (R)-N-(1-(3-(difluoromethyl)-2-fluorophenyl)ethyl)-7-(2-(dimethylamino)ethoxy)-2-methyl-6-(1-methylpiperidin-4-yl)pyrido[2,3-d]pyrimidin-4-amine]: the 50% inhibitory concentration (IC50) in assay [1] (setting [8]) is under 500 nM; in assay [2] (setting [5]), under 500 nM; on SOS1 (setting [6]), under 100 nM; at SOS1 (setting [7]) it was under 50 nM.
As to `COc1nc2nc(C)nc(N[C@H](C)c3cccc(C(F)(F)CCC4CNC4)c3F)c2cc1C1(C#N)CC1` [Compound 172, (R)-1-(4-((1-(3-(3-(azetidin-3-yl)-1,1-difluoropropyl)-2-fluorophenyl)ethyl)amino)-7-methoxy-2-methylpyrido[2,3-d]pyrimidin-6-yl)cyclopropane-1-carbonitrile], the half-inhibitory concentration (IC50) in assay [1] (setting [3]) was 1000 to 10000 nM; in assay [2] (setting [4]), at most 1000 nM; in assay [2] (setting [5]), under 500 nM; on SOS1 (setting [6]) it was under 100 nM; at SOS1 (setting [7]) it was under 50 nM.
`COCCOc1nc2nc(C)nc(N[C@H](C)c3cccc(C(F)F)c3F)c2cc1C1(C#N)CC1` [Compound 151, (R)-1-(4-((1-(3-(difluoromethyl)-2-fluorophenyl)ethyl)amino)-7-(2-methoxyethoxy)-2-methylpyrido[2,3-d]pyrimidin-6-yl)cyclopropane-1-carbonitrile]: the IC50 in assay [1] (setting [3]) is at most 1000 nM; in assay [2] (setting [4]), at most 1000 nM; in assay [2] (setting [5]), under 500 nM; at SOS1 (setting [7]), under 50 nM.
With `COc1nc2nc(C)nc(N[C@H](C)c3cccc(C(F)F)c3F)c2cc1C1=CCS(=O)(=O)CC1` [Compound 127, (R)-4-(4-((1-(3-(difluoromethyl)-2-fluorophenyl)ethyl)amino)-7-methoxy-2-methylpyrido[2,3-d]pyrimidin-6-yl)-3,6-dihydro-2H-thiopyran 1,1-dioxide], the IC50 in assay [1] (setting [3]) was at most 1000 nM; in assay [1] (setting [8]) it was under 500 nM; in assay [2] (setting [4]), at most 1000 nM; in assay [2] (setting [5]) it was under 500 nM; on SOS1 (setting [6]), under 100 nM; on SOS1 (setting [7]), under 50 nM.
As for `Cc1nc(N[C@H](C)c2cccc(C(F)(F)C(C)(C)O)c2F)c2cc(C3(C#N)CC3)c(OC3COC3)nc2n1` [Compound 245, (R)-1-(4-((1-(3-(1,1-difluoro-2-hydroxy-2-methylpropyl)-2-fluorophenyl)ethyl)amino)-2-methyl-7-(oxetan-3-yloxy)pyrido[2,3-d]pyrimidin-6-yl)cyclopropane-1-carbonitrile], the IC50 in assay [1] (setting [3]) is 1000 to 10000 nM; in assay [2] (setting [4]), 1000 to 10000 nM; on SOS1 (setting [6]) it was under 100 nM; on SOS1 (setting [7]), under 50 nM.
As for `CCN1CCC(c2cc3c(N[C@H](C)c4cccc(C(F)(F)F)c4F)ncnc3nc2OC)CC1` [Compound 199, (R)-6-(1-ethylpiperidin-4-yl)-N-(1-(2-fluoro-3-(trifluoromethyl)phenyl)ethyl)-7-methoxypyrido[2,3-d]pyrimidin-4-amine], the 50% inhibitory concentration (IC50) in assay [1] (setting [3]) is at most 1000 nM; in assay [1] (setting [8]), under 500 nM; in assay [2] (setting [4]), at most 1000 nM; in assay [2] (setting [5]), under 500 nM; at SOS1 (setting [6]), under 100 nM; on SOS1 (setting [7]), under 50 nM.
In the case of `COc1nc2nc(C)nc(N[C@H](C)c3cccc(C(F)F)c3F)c2cc1C1(C#N)CCN(C(C)C)CC1` [Compound 117, (R)-4-(4-((1-(3-(difluoromethyl)-2-fluorophenyl)ethyl)amino)-7-methoxy-2-methylpyrido[2,3-d]pyrimidin-6-yl)-1-isopropylpiperidine-4-carbonitrile], the IC50 is at most 1000 nM in assay [1] (setting [3]); at most 1000 nM in assay [2] (setting [4]); under 500 nM in assay [2] (setting [5]); under 100 nM at SOS1 (setting [6]); under 50 nM on SOS1 (setting [7]).
On to `Cc1nc(N[C@H](C)c2cccc(C(F)(F)[C@H](C)O)c2F)c2cc(C3(C#N)CC3)c(Cl)nc2n1` [Compound 258, 1-(7-chloro-4-(((R)-1-(3-((S)-1,1-difluoro-2-hydroxypropyl)-2-fluorophenyl)ethyl)amino)-2-methylpyrido[2,3-d]pyrimidin-6-yl)cyclopropane-1-carbonitrile], for which the half-inhibitory concentration (IC50) is at most 1000 nM in assay [1] (setting [3]); under 500 nM in assay [1] (setting [8]); at most 1000 nM in assay [2] (setting [4]); under 500 nM in assay [2] (setting [5]); under 100 nM at SOS1 (setting [6]); under 50 nM on SOS1 (setting [7]).
In the case of `Cc1nc(N[C@H](C)c2cccc(C(F)(F)C3CCN(C(C)C)CC3)c2)c2cc(C3CCN(C(C)C)CC3)c(Cl)nc2n1` [Compound 269, (R)-7-chloro-N-(1-(3-(difluoro(1-isopropylpiperidin-4-yl)methyl)phenyl)ethyl)-6-(1-isopropylpiperidin-4-yl)-2-methylpyrido[2,3-d] pyrimidin-4-amine], the IC50 in assay [1] (setting [3]) is at most 1000 nM; in assay [1] (setting [8]), under 500 nM; in assay [2] (setting [4]), at most 1000 nM; in assay [2] (setting [5]), under 500 nM; on SOS1 (setting [6]), under 100 nM; at SOS1 (setting [7]) it was under 50 nM.
Take `COc1nc2nc(C)nc(N[C@H](C)c3cccc(C(F)F)c3F)c2cc1C1CCN(CCO)CC1` [Compound 130, (R)-2-(4-(4-((1-(3-(difluoromethyl)-2-fluorophenyl)ethyl)amino)-7-methoxy-2-methylpyrido[2,3-d]pyrimidin-6-yl)piperidin-1-yl)ethan-1-ol]: the concentration for half-maximal inhibition (IC50) in assay [1] (setting [3]) is at most 1000 nM; in assay [1] (setting [8]), under 500 nM; in assay [2] (setting [4]), at most 1000 nM; in assay [2] (setting [5]) it was under 500 nM; on SOS1 (setting [6]), under 100 nM; on SOS1 (setting [7]), under 50 nM.
As for `COc1nc2nc(C)nc(N[C@H](C)c3cccc(C(F)F)c3F)c2cc1C1CCN(C(C)C)CC1` [Compound 112, (R)-N-(1-(3-(difluoromethyl)-2-fluorophenyl)ethyl)-6-(1-isopropylpiperidin-4-yl)-7-methoxy-2-methylpyrido[2,3-d]pyrimidin-4-amine], the IC50 in assay [1] (setting [3]) is at most 1000 nM; in assay [1] (setting [8]), under 500 nM; in assay [2] (setting [4]), at most 1000 nM; in assay [2] (setting [5]) it was under 500 nM; at SOS1 (setting [6]), under 100 nM; on SOS1 (setting [7]) it was under 50 nM.
For the compound `Cc1nc(N[C@H](C)c2cccc(C(F)F)c2F)c2cc(N3CCN(C(C)C)CC3)c(OCCN(C)C)nc2n1` [Compound 359, (R)-N-(1-(3-(difluoromethyl)-2-fluorophenyl)ethyl)-7-(2-(dimethylamino)ethoxy)-6-(4-isopropylpiperazin-1-yl)-2-methylpyrido[2,3-d] pyrimidin-4-amine], the 50% inhibitory concentration (IC50) in assay [1] (setting [3]) is at most 1000 nM; in assay [1] (setting [8]), under 500 nM; in assay [2] (setting [4]) it was at most 1000 nM; in assay [2] (setting [5]), under 500 nM; on SOS1 (setting [6]), under 100 nM; on SOS1 (setting [7]), under 50 nM.
